{"source": "paper PMC4949444", "about": "(Scientific Reports, 2016)", "key": {"HiB5 cells [1]": {"system": "HiB5 cells", "assay": "Quinolinic acid-induced cell death and apoptosis in HiB5 cells", "assay_type": "cell-based", "procedure": "(§1) Figure 4 In vitro neuroprotective action of VCE-003.2. (a) HiB5 cells were treated with quinolinic acid (QA; 2,5 mM) in the presence or the absence of VCE-003.2 (50 and 250 nM) and cell viability was determined after 24 h by the MTT assay. (b) QA-induced apoptosis measured by cleaved caspase 3 immunostaining (upper panel) of differentiating HiB5 cells was quantified in the presence or absence of VCE-003.2 (250 nM). Cell counts were referred to total cell nuclei counterstained with DAPI and c-caspase3^+ cell quantification is shown in the lower panel. […]. (d) Aggregation of mut-Htt was assessed by fluorescence microscopy in immortalized striatal STHdh transfected cells with a CFP-tagged expression vector of mutant huntingtin (mut-Htt) and counterstained with fluorescent phalloidin (upper panel). […]. Results are representative of three independent experiments. Values are expressed as means ± S. D. *p < 0.05 and ***p < 0.001 vs. Vehicle; ^#p < 0.05 ^##p < 0.01 vs. QA. […]\n(§2) The HiB5 hippocampal progenitor cell line (kindly provided by Prof. Z. Kokaia, Lund Stem Cell Center, Sweden) was grown as described[46] in DMEM supplemented with 2 mM glutamine, 1% penicillin/streptomycin and 10% (v/v) fetal calf serum (FCS; Lonza, Switzerland). […] Cell viability was determined after 24 h using the 3-[4,5-dimethylthiazol-2-yl]-2,5-diphenyltetrazolium bromide (MTT) tesresults int. […]"}, "CB1 receptor": {"molecular_target": "T1, CB1 receptor (Homo sapiens, UniProt P21554)", "T1 construct": "purchased Perkin-Elmer Life and Analytical Sciences, Boston, MA; host or cells: HEK293 EBNA cells stably expressing the receptor", "T1 sequence (P21554 whole entry)": "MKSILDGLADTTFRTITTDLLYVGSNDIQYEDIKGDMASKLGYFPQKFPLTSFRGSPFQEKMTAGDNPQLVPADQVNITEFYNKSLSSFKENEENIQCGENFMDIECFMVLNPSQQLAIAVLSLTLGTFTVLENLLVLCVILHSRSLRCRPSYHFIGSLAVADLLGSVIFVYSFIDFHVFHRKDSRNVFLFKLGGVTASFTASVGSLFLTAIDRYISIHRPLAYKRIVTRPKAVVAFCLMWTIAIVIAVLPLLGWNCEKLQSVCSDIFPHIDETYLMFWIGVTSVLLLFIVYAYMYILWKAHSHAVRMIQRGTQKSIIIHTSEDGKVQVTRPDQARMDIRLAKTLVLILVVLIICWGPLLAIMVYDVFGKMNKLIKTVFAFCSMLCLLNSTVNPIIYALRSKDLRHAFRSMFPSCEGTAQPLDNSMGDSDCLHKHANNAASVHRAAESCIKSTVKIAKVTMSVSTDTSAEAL", "assay": "CB1 receptor binding, [3H]CP55940 competition", "conditions": "data not shown; read-out: predicted Ki, CB1 receptor", "procedure": "(§3) CB1 and CB2 receptor binding affinities were determined by competition studies using [^3H]CP55940 as radioligand and commercial membrane preparations of HEK293 EBNA cells stably expressing the respective receptor type (Perkin-Elmer Life and Analytical Sciences, Boston, MA), following a procedure previously described."}, "N2a cells": {"system": "N2a cells", "assay": "Reactive oxygen species production in N2a cells (CM-H2DCFDA)", "assay_type": "cell-based", "conditions": "2 hours", "procedure": "Determination of ROS: N2a cells were seeded at 25x 10^3 cells/ml in 96-well plates and incubated with 0.25 ȝM 5-(and-6 )-chloro meth yl-2ƍ,7ƍ-dichlorodihydrofluorescein diacetate acet yl ester (C M-H 2 DCFDA) for 20 minutes at 37°C. Then, the cells were treated with either VCE-003 or VCE-003.2 for 2 hours. Cells exposed to pro-oxidant tert-Butyl h ydroperoxide (TBHP) were used as positive control. H 2 DCFDA oxidation was detected using an Incuc yteTM Live-Cell Imaging S ystem (Hertfordshire, UK).\nSupplementary Figure S1. Non-elect rophilic activity for VCE-003.2. (a) Reactive ox ygen species production. N2a cells were stained with CM-H2DCFDA and treated with VCE-003 or VCE-003.2 for 2 hours. Then, reactive ox ygen sp ecies were measured b y In cu c yt e TM Liv e-Cell Im agin g S ystem. Results are ex pressed as m ean of t otal integrated intensity (ROS positive cells) ± S.D. (b) Effect on Nrf2 transcriptional activity.\nVCE-003 treatment vers us Vehicle treated cells."}, "[2]": {"system": "osteoblast-differentiating MSCs", "assay": "Osteoblast differentiation of human mesenchymal stem cells", "conditions": "osteoblastogenic medium, 14 days of differentiation", "text": "The Reina Sofia University Hospital Review Board approved this study and the procedures followed were in accordance with the ethical standards of the ethic committee from Hospital Reina Sofía and with the Declaration of Helsinki. Bone marrow donors were recruited by the Haematology Service. All subjects gave their informed consent so that the bone marrow aliquots extracted for clinical purposes could also be used for mesenchymal bone marrow research. […] Adipogenic and osteoblast differentiation was performed as described[22]. Treatment with RZG and VCE-003.2 started at the same time as the differentiation process. […] The images captured with the light microscope were analyzed with the ImageJ Software (NIH; Bethesda, MD, USA).\nCells were collected at day 14 of differentiation and total RNA was extracted using the High Pure RNA Isolation kit (Roche Diagnostics). The total amount of RNA extracted was quantified using NanoDrop 2000 (Thermo Fisher Scientific Inc). Total RNA (1 μg) was retrotranscribed using the iScriptTM cDNA Synthesis Kit (Bio-Rad; Hercules, CA, USA), and the cDNA generated was analyzed by real-time PCR, using the iQ^TM SYBR Green Supermix (Bio-Rad; Hercules, CA, USA). Real-time PCR to quantify the mRNA of osteoblastic and adipocityc markers was performed using a CFX96 Real-time PCR Detection System (Bio-Rad; Hercules, CA, USA). […]"}, "CB2 receptor": {"molecular_target": "T2, CB2 receptor (Homo sapiens, UniProt P34972)", "T2 construct": "purchased Perkin-Elmer Life and Analytical Sciences, Boston, MA; host or cells: HEK293 EBNA cells stably expressing the receptor", "T2 sequence (P34972 whole entry)": "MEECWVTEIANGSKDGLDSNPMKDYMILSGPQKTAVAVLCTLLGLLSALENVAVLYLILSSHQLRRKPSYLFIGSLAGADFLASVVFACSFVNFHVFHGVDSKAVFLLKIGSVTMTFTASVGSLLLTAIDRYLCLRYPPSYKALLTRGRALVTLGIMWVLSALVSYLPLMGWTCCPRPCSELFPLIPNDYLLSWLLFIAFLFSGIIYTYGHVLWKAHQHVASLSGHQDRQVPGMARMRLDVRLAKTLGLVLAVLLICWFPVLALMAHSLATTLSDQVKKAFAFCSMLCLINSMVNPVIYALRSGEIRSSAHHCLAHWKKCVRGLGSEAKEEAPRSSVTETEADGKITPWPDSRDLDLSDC", "assay": "CB2 receptor binding, [3H]CP55940 competition", "conditions": "data not shown; read-out: predicted Ki, CB2 receptor", "procedure": "as §3"}, "STHdh^Q111/Q111": {"system": "STHdh^Q111/Q111", "assay": "Serum deprivation survival of STHdh Q111/Q111 striatal neuroblasts (MTT)", "assay_type": "cell-based, mouse", "conditions": "STHdh Q111/Q111, 72 h", "procedure": "as §1, §2"}, "HiB5 cells [3]": {"system": "HiB5 cells", "assay": "HiB5 neural progenitor cell viability (MTT)", "assay_type": "cell-based", "procedure": "Figure 3 Prosurvival effect of VCE-003.2 in hippocampal neural progenitor HiB5 cells. (a,b) HiB5 cells in proliferative and differentiation conditions respectively were incubated with increasing concentrations of VCE-003.2 and cell viability was assessed using the MTT test after 48 h. (c) Cell viability and ERK1/2 phosphorylation status (activation) was determined in VCE-003.2-treated cells in the absence or presence of GW9662 (5 μM). (d) VCE-003.2 time-dependent regulation of the ERK, Akt and mTORC1 signaling pathways were determined by incubation with anti-phospho-ERK, phospho-Akt and phospho-S6 antibodies. Loading control was performed with α-tubulin antibody. Representative western blots and densitometry quantification of three independent experiments are shown. Values are expressed as means ± S.D. *p < 0.05; **p < 0.01 vs. Vehicle; ^#p < 0.05 vs. VCE-003.2.\nThe HiB5 hippocampal progenitor cell line (kindly provided by Prof. Z. Kokaia, Lund Stem Cell Center, Sweden) was grown as described[46] in DMEM supplemented with 2 mM glutamine, 1% penicillin/streptomycin and 10% (v/v) fetal calf serum (FCS; Lonza, Switzerland). HiB5 cell cultures were incubated in 5% CO2 at 33 °C, the proliferation-permissive temperature of the oncogenic tsA58 allele of the SV40 large T antigen. Incubation at 37 °C loss of proliferative capacity and neural differentiation. Cell viability was determined after 24 h using the 3-[4,5-dimethylthiazol-2-yl]-2,5-diphenyltetrazolium bromide (MTT) […]. Immortalized mouse striatal STHdh cells (kindly provided by S. Gines, U. Barcelona, Spain) were cultured as described. Cell were transiently transfected with 10 μg doxycycline-inducible CFP-huntingtin-94Q using Amaxa´s Nucleofector following the instructions of the manufacturer (Lonza). In addition STHdh^Q7/Q7 and STHdh^Q111/Q111 expressing endogenous levels of full-length huntingtin with 7 glutamines or 111 glutamines in the protein N-terminal domain, respectively, were used. […]"}}, "data": [{"smiles": "CCCCCC1=C(NCC)C(=O)C(C/C=C(\\C)CCC=C(C)C)=C(O)C1=O", "note": "[VCE-003.2]", "values": [{"measurement": "QA-induced NP cell death", "setting": "HiB5 cells [1]; HiB5, QA 2,5 mM, VCE-003.2 50 and 250 nM, 24 h MTT", "result": "fully prevented"}, {"measurement": "QA-induced apoptosis (cleaved caspase 3)", "setting": "HiB5 cells [1]; differentiating HiB5, VCE-003.2 250 nM", "result": "significantly inhibited"}, {"measurement": "Ki", "setting": "CB1 receptor", "result": "> 40", "unit": "µM"}, {"measurement": "induction of reactive oxygen species (ROS)", "setting": "N2a cells", "result": "none of these bioactivities were induced"}, {"measurement": "expression of osteogenic differentiation markers Runx2, SP7, ALP, IBSP", "setting": "[2]", "result": "mild and did not inhibit the expression of osteogenic differentiation markers"}, {"measurement": "Ki", "setting": "CB2 receptor", "result": "> 40", "unit": "µM"}, {"measurement": "neuronal viability after serum deprivation", "setting": "STHdh^Q111/Q111", "result": "improved"}, {"measurement": "cell viability, proliferative conditions", "setting": "HiB5 cells [3]; HiB5, 50 nM to 50 μM, MTT", "result": "not toxic even at the highest concentrations employed"}, {"measurement": "cell viability during neuronal differentiation", "setting": "HiB5 cells [3]; HiB5, differentiation conditions, increasing concentrations, MTT", "result": "exerted a prosurvival activity at lower concentrations, while at high concentrations it was toxic and reduced cell viability"}, {"measurement": "prosurvival action in presence of PPARγ antagonist", "setting": "HiB5 cells [3]; VCE-003.2 250 nM + GW9662 5 μM", "result": "prevented"}]}]}
